Experimental data: US5563155A, “Individual stereosiomers of 7-[3-(aminoalkyl)-1-pyrrolidinyl]-quinolones and naphthyridones as antibacterial agents” (Warner-Lambert Company, priority 1995, dated 1996)
Values after ≈ are worked out from the molar mass of the structure shown. Structures can show the parent of a compound that is named as a salt. Where two headings read alike, the source gives them in different places.

Key:
Ent. cloacae MA2646 = test: in vitro antibacterial activity, microtitration dilution (MIC), Ent. cloacae MA2646; assay type: cell-based; details: Enterobacter cloacae, read-out: minimum inhibiting concentration (MIC)
Source text: (§1) The in vitro antibacterial activity, is obtained by the microtitration dilution method as described in Heifetz, et al., Antimicr. Agents & Chemother., 6, 124 (1974), which is incorporated herein by reference.
(§2) By use of the above methods, the following minimum inhibiting concentration values (MICs in μg/mL), PD50 's in mg/kg, no effect phototoxicity dose in mg/kg and the cytotoxicity IC50 in μg/mL were obtained for representative enantiomers of the invention and compounds of the prior art as shown in the table.

Esch. coli Vogel [1] = test: in vitro antibacterial activity, microtitration dilution (MIC), Esch. coli Vogel; assay type: cell-based; details: Escherichia coli, read-out: minimum inhibiting concentration (MIC)
Source text: as §1, §2

Klebs. pneumoniae MGH-2 = test: in vitro antibacterial activity, microtitration dilution (MIC), Klebs. pneumoniae MGH-2; assay type: cell-based; details: Klebsiella pneumoniae, MGH2, read-out: minimum inhibiting concentration (MIC)
Source text: as §1, §2

Prot. rettgeri M 1771 = test: in vitro antibacterial activity, microtitration dilution (MIC), Prot. rettgeri M 1771; assay type: cell-based; details: Providencia rettgeri, M1771, read-out: minimum inhibiting concentration (MIC)
Source text: as §1, §2

Pseud. aeruginosa UI-18 = test: in vitro antibacterial activity, microtitration dilution (MIC), Pseud. aeruginosa UI-18; assay type: cell-based; details: Pseudomonas aeruginosa, UI18, read-out: minimum inhibiting concentration (MIC)
Source text: as §1, §2

Staph. aureus H 228 = test: in vitro antibacterial activity, microtitration dilution (MIC), Staph. aureus H 228; assay type: cell-based; details: Staphylococcus aureus, H228, read-out: minimum inhibiting concentration (MIC)
Source text: as §1, §2

Staph. aureus UC-76 = test: in vitro antibacterial activity, microtitration dilution (MIC), Staph. aureus UC-76; assay type: cell-based; details: Staphylococcus aureus, UC76, read-out: minimum inhibiting concentration (MIC)
Source text: as §1, §2

Strep. faecalis MGH-2 = test: in vitro antibacterial activity, microtitration dilution (MIC), Strep. faecalis MGH-2; assay type: cell-based; details: Enterococcus faecalis, MGH2, read-out: minimum inhibiting concentration (MIC)
Source text: as §1, §2

Strep. pheumoniae SV-1 = test: in vitro antibacterial activity, microtitration dilution (MIC), Strep. pneumoniae SV-1; assay type: cell-based; details: Streptococcus pneumoniae, SV1, read-out: minimum inhibiting concentration (MIC)
Source text: as §1, §2

Strep. pyogenes C-203 [2] = test: in vitro antibacterial activity, microtitration dilution (MIC), Strep. pyogenes C-203; assay type: cell-based; details: Streptococcus pyogenes, C203, read-out: minimum inhibiting concentration (MIC)
Source text: as §1, §2

Strep. pyogenes C-203 [3] = test: median protective dose in mice given lethal systemic infections, Strep. pyogenes C-203; assay type: in vivo; details: Streptococcus pyogenes, single dose at time of challenge, read-out: median protective dose (PD50)
Method: (§3) The in vivo activity is obtained when the compounds are tested according to the procedure of Miller, et al (Proc. Soc. Exp. Biol. Med. 57, 261, 1944). The median protective dose (PD50) was determined in mice given lethal systemic infections. Single doses of compound were given at time of challenge.
as §2
(§4) The in vivo data as PD50 s are reported below the line of MICs for the same compound.

[4] = cytotoxicity, hamster V-79 cells, colony reduction; assay type: cell-based; details: 3 hours treatment, colonies counted after 5 days, read-out: Cytotox (cytotoxicity IC50)
Method: The cytotoxicity data is obtained using hamster V-79 cells. The cells were suspended in tissue culture medium and grown overnight. Cells were treated with drug for 3 hours, washed free of drug and then replated, and the colonies counted after 5 days. The concentration of drug that reduced colones by 50% relative to control was recorded.
as §2

Esch. coli Vogel [5] = test: median protective dose in mice given lethal systemic infections, Esch. coli Vogel; assay type: in vivo; details: Escherichia coli, single dose at time of challenge, read-out: median protective dose (PD50)
Method: as §3, §2, §4

SMILES	MIC (Ent. cloacae MA2646)	MIC (Esch. coli Vogel [1])	MIC (Klebs. pneumoniae MGH-2)	MIC (Prot. rettgeri M 1771)	MIC (Pseud. aeruginosa UI-18)	MIC (Staph. aureus H 228)	MIC (Staph. aureus UC-76)	MIC (Strep. faecalis MGH-2)	MIC (Strep. pheumoniae SV-1)	MIC (Strep. pyogenes C-203 [2])	ED50 (Strep. pyogenes C-203 [3]; C203, PO)	ED50 (Strep. pyogenes C-203 [3]; C203, SC)	CC50 at 3 h [4]	ED50 (Esch. coli Vogel [5]; PO)	ED50 (Esch. coli Vogel [5]; SC)
CCN[C@@H](C)[C@@H]1CCN(c2nc3c(cc2F)c(=O)c(C(=O)O)cn3C2CC2)C1 [Example 78, 3R,1S-1-cyclopropyl-7-[3-[1-(ethylamino)ethyl]-1-pyrrolidinyl]-6-fluoro-1,4-dihydro-4-oxo-1,8-naphthyridine-3-carboxylic acid]	0.4 µg/mL (≈ 1.03 µM)	0.1 µg/mL (≈ 0.257 µM)	0.2 µg/mL (≈ 0.515 µM)	1.6 µg/mL (≈ 4.12 µM)	1.6 µg/mL (≈ 4.12 µM)	0.05 µg/mL (≈ 0.129 µM)	0.025 µg/mL (≈ 0.0644 µM)	0.05 µg/mL (≈ 0.129 µM)	0.025 µg/mL (≈ 0.0644 µM)	0.05 µg/mL (≈ 0.129 µM)	6 mg/kg	4 mg/kg			
CN[C@H](C)[C@H]1CCN(c2c(F)cc3c(=O)c(C(=O)O)cn(C4CC4)c3c2OC)C1 [Example 38, 3S,1R-1-cyclopropyl-6-fluoro-7-[3-(1-N-methylaminoethyl)-1-pyrrolidinyl]-8-methoxy-1,4-dihydro-4-oxo-3-quinolinecarboxy acid]	0.2 µg/mL (≈ 0.496 µM)	0.2 µg/mL (≈ 0.496 µM)	0.4 µg/mL (≈ 0.991 µM)	0.8 µg/mL (≈ 1.98 µM)	3.1 µg/mL (≈ 7.68 µM)	0.05 µg/mL (≈ 0.124 µM)	0.013 µg/mL (≈ 0.0322 µM)	0.05 µg/mL (≈ 0.124 µM)	0.025 µg/mL (≈ 0.062 µM)	0.025 µg/mL (≈ 0.062 µM)	6 mg/kg	1 mg/kg	130 µg/mL (≈ 322 µM)		
CCN[C@H](C)[C@H]1CCN(c2nc3c(cc2F)c(=O)c(C(=O)O)cn3C2CC2)C1 [Example 79, 3S,1R-1-cyclopropyl-7-[3-[1-(ethylamino)ethyl]-1-pyrrolidinyl]-6-fluoro-1,4-dihydro-4-oxo-1,8-naphthyridine-3-carboxylic acid]	0.1 µg/mL (≈ 0.257 µM)	0.1 µg/mL (≈ 0.257 µM)	0.2 µg/mL (≈ 0.515 µM)	0.8 µg/mL (≈ 2.06 µM)	1.6 µg/mL (≈ 4.12 µM)	0.1 µg/mL (≈ 0.257 µM)	0.025 µg/mL (≈ 0.0644 µM)	0.05 µg/mL (≈ 0.129 µM)	0.025 µg/mL (≈ 0.0644 µM)	0.05 µg/mL (≈ 0.129 µM)	2 mg/kg	2 mg/kg		2 mg/kg	1 mg/kg
CCOc1c(N2CC[C@@H]([C@H](C)NC)C2)c(F)cc2c(=O)c(C(=O)O)cn(C3CC3)c12 [Example 57, 3R,1S-1-cyclopropyl-8-ethoxy-6-fluoro-1,4-dihydro-7-[3-(1-N-methylaminoethyl)-1-pyrrolidinyl]-4-oxo-3-quinolinecarboxylic acid]	0.4 µg/mL (≈ 0.958 µM)	0.4 µg/mL (≈ 0.958 µM)	0.4 µg/mL (≈ 0.958 µM)	0.8 µg/mL (≈ 1.92 µM)	3.1 µg/mL (≈ 7.43 µM)	0.025 µg/mL (≈ 0.0599 µM)	0.013 µg/mL (≈ 0.0311 µM)	0.05 µg/mL (≈ 0.12 µM)	0.025 µg/mL (≈ 0.0599 µM)	0.025 µg/mL (≈ 0.0599 µM)			220 µg/mL (≈ 527 µM)		
CCN[C@@H](C)[C@@H]1CCN(c2c(F)c(N)c3c(=O)c(C(=O)O)cn(C4CC4)c3c2F)C1 [Example 53, 3R,1S-5-amino-1-cyclopropyl-7-[3-(1-N-ethylaminoethyl)-1-pyrrolidinyl]-6,8-difluoro-1,4-dihydro-4-oxo-3-quinolinecarboxylic acid]	0.025 µg/mL (≈ 0.0595 µM)	0.025 µg/mL (≈ 0.0595 µM)	0.05 µg/mL (≈ 0.119 µM)	0.1 µg/mL (≈ 0.238 µM)	0.8 µg/mL (≈ 1.9 µM)	≤ 0.003 µg/mL	≤ 0.003 µg/mL	0.013 µg/mL (≈ 0.0309 µM)	≤ 0.003 µg/mL	≤ 0.003 µg/mL	0.3 mg/kg	0.3 mg/kg		1.6 mg/kg	0.8 mg/kg
Cc1c(F)c(N2CC[C@@H]([C@H](C)N)C2)cc2c1c(=O)c(C(=O)O)cn2-c1ccc(F)cc1F [Example 65, 3R,1S-7-[3-(1-aminoethyl)-1-pyrrolidinyl]-1-(2,4-difluorophenyl)-6-fluoro-1,4-dihydro-5-methyl-4-oxo-3-quinolinecarboxylic acid, monohydrochloride]	0.1 µg/mL	0.1 µg/mL	0.2 µg/mL	0.4 µg/mL	0.8 µg/mL	0.013 µg/mL	0.006 µg/mL	0.025 µg/mL	0.003 µg/mL	0.003 µg/mL	5 mg/kg	0.6 mg/kg	10 µg/mL		
CN[C@H](C)[C@@H]1CCN(c2nc3c(cc2F)c(=O)c(C(=O)O)cn3C2CC2)C1 [Example 22, 3R,1R-1-cyclopropyl-6-fluoro-7-[3-(1-N-methylaminoethyl)-1-pyrrolidinyl]-1,4-dihydro-4-oxo-1,8-naphthyridine-3-carboxylic acid]	0.1 µg/mL (≈ 0.267 µM)	0.1 µg/mL (≈ 0.267 µM)	0.2 µg/mL (≈ 0.534 µM)	0.4 µg/mL (≈ 1.07 µM)	1.6 µg/mL (≈ 4.27 µM)	0.1 µg/mL (≈ 0.267 µM)	0.05 µg/mL (≈ 0.134 µM)	0.025 µg/mL (≈ 0.0668 µM)	0.05 µg/mL (≈ 0.134 µM)	0.05 µg/mL (≈ 0.134 µM)	8 mg/kg	5 mg/kg	88 µg/mL (≈ 235 µM)	4.6 mg/kg	1.2 mg/kg
C[C@@H](N)[C@@H]1CCN(c2nc3c(cc2F)c(=O)c(C(=O)O)cn3-c2ccc(F)cc2F)C1 [Example 48, 3R,1R-7-[3-(1-aminoethyl)-1-pyrrolidinyl]-1-(2,4-difluorophenyl)-6-fluoro-1,4-dihydro-1,8-naphthyridine-3-carboxylic acid]	0.1 µg/mL (≈ 0.231 µM)	0.1 µg/mL (≈ 0.231 µM)	0.2 µg/mL (≈ 0.463 µM)	0.4 µg/mL (≈ 0.925 µM)	1.6 µg/mL (≈ 3.7 µM)	0.1 µg/mL (≈ 0.231 µM)	0.025 µg/mL (≈ 0.0578 µM)	0.1 µg/mL (≈ 0.231 µM)	0.05 µg/mL (≈ 0.116 µM)	0.05 µg/mL (≈ 0.116 µM)	9 mg/kg	3 mg/kg			
CN[C@@H](C)[C@@H]1CCN(c2nc3c(cc2F)c(=O)c(C(=O)O)cn3-c2ccc(F)cc2F)C1 [Example 64, 3R,1S-1-(2,4-difluorophenyl)-6-fluoro-1,4-dihydro-7-[3-[1-(methylamino)ethyl]-1-pyrrolidinyl]-4-oxo-1,8-naphthyridine-3-carboxylic acid, monohydrochloride]	0.8 µg/mL	0.4 µg/mL	0.8 µg/mL	1.6 µg/mL	3.1 µg/mL	0.1 µg/mL	0.025 µg/mL	0.2 µg/mL	0.025 µg/mL	0.05 µg/mL	4 mg/kg	2 mg/kg	310 µg/mL	5 mg/kg	2 mg/kg
